In PubChem BioAssay (NCI):
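Tested at 5 concentrations; 48 h exposure; 96-well plates; endpoints linearly interpolated, else capped at highest concentration. The concentration for full growth arrest is given as TGI.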

Key:
Assay in all cases: NCI tumour cell line growth inhibition, 48 h
[1] = test system: CAKI-1 renal
[2] = test system: COLO 205 colon
[3] = test system: EKVX NSCLC
[4] = test system: HS 578T breast
[5] = test system: HT29 colon
[6] = test system: NCI/ADR-RES ovarian
[7] = test system: OVCAR-5 ovarian
[8] = test system: OVCAR-8 ovarian
[9] = test system: SF-539 CNS
[10] = test system: SK-MEL-2 melanoma
[11] = test system: SK-MEL-28 melanoma
[12] = test system: SK-OV-3 ovarian
[13] = test system: SNB-75 CNS
[14] = test system: SW-620 colon
[15] = test system: UACC-257 melanoma
[16] = test system: UO-31 renal

With `Cc1cn2c(/C=N/N=C(N)N)c(-c3ccc(Cl)c([N+](=O)[O-])c3)nc2s1` as the compound, how does the TGI [1] read?
Its TGI is greater than 100 µM.

And the TGI [2]?
The TGI was 1.88 µM.

And the TGI [3]?
Its TGI is 2.1 µM.

And the TGI [4]?
Its TGI is greater than 100 µM.

What about the TGI [5] of the same compound?
Its TGI is 2.72 µM.

And the TGI [6]?
The TGI was greater than 100 µM.

What about the TGI [7] of the same compound?
The TGI was 2.41 µM.

And the TGI [8]?
Its TGI is greater than 100 µM.

What about the TGI [9] of the same compound?
Its TGI is 3.11 µM.

What about the TGI [10] of the same compound?
The TGI was 1.6 µM.

What about the TGI [11] of the same compound?
Its TGI is 3.05 µM.

What about the TGI [12] of the same compound?
Its TGI is 3.15 µM.

And the TGI [13]?
Its TGI is 2.37 µM.

What about the TGI [14] of the same compound?
The TGI was greater than 100 µM.

And the TGI [15]?
Its TGI is greater than 100 µM.

And the TGI [16]?
The TGI was 3.4 µM.
